Where only a bound is given, the exact number is not on record here.

The subject of experiment [1] is cellular histone deacetylase enzymatic activity in Jurkat E6-1 cells. In words: Inhibition of cellular HDAC activity, Boc-Lys(Tfa)-AMC substrate (Cell Lys-TFA). The experiment is classed as cell-based. An outline of the steps: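 Jurkat E6-1 cells (75,000/well) were treated with a 16-point compound dilution for 2 h at 37 °C, then exposed to Boc-Lys(Tfa)-AMC for 3 h. Lysis buffer containing trypsin was added overnight (15-16 h), and AMC fluorescence was read at Ex 355/Em 460 nm.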

The target in experiment [2] is Histone Deacetylase 4 (HDAC4) catalytic domain (Homo sapiens (Human), UniProt P56524). In words: Biochemical HDAC inhibition assay, fluorogenic substrate Boc-Lys(Tfa)-AMC. The method, then:
The potency of compounds is quantified by measuring the Histone Deacetylase 4 (HDAC4) catalytic domain enzymatic activity using the fluorogenic substrate, Boc-Lys(Tfa)-AMC. The substrate is deacetylated to Boc-Lys-AMC by HDAC4. Cleavage by trypsin results in the release of the fluorophore AMC from the deacetylated substrate. The fluorescence of the sample is directly related to the histone deacetylase activity in the sample.
Stocks of 60 μL aliquots of the 10 mM compound in DMSO are prepared and stored at −20° C. From one stock aliquot of each compound to be tested and the reference compound, a 16-point serial dilution is prepared according to Table 1 using a 125 μL 16-channel Matrix multi-channel pipette (Matrix Technologies Ltd).
2 μL (200×) of each diluted solution and each control (full activity: 100% DMSO alone or full inhibition 1 mM) is stamped into V-bottomed polypropylene 384-well compound plates using either the Bravo (384-well head from Agilent) or 12.5 μL 16-channel Matrix multi-channel pipette (Matrix Technologies Ltd). Each well with the 200× compound solution is diluted 1:20 by the addition of 38 μL assay buffer+DMSO (10.5% DMSO, 45 mM Tris-HCl, 123 mM NaCl, 2.4 mM KCl, and 0.9 mM MgCl2 at pH 8.0 and equilibrated to room temperature).
The HDAC4 catalytic domain enzyme is human catalytic domain HDAC4 protein (amino acids 648-1032) with a C-terminal 6× histidine tag, produced by BioFocus. A working solution of enzyme is prepared from a 500 μg/mL stock aliquot of HDAC4 catalytic domain (thawed on ice) diluted to 0.2 μg/mL with assay buffer (50 mM Tris-HCl, 137 mM NaCl, 2.7 mM KCl, and 1 mM MgCl2 at pH 8 and equilibrated to room temperature) just prior to the addition of the enzyme to the assay.
5× (50 μM) substrate is prepared just prior to the addition to the assay. A 1 mM substrate stock is made by diluting a 100 mM Boc-Lys(Tfa)-AMC in DMSO solution 1:100 by adding it drop-wise to assay buffer (equilibrated to room temperature) while vortexing at slow speed to prevent precipitation. The 5× substrate is prepared by diluting the 1 mM substrate solution 1:20 by adding it drop-wise to assay buffer (equilibrated to room temperature) while vortexing at slow speed to prevent precipitation.
3× (30 μM) Developer/Stop Solution is prepared just prior to addition to the plate by diluting a stock solution of 10 mM reference compound 1:333 in 25 mg/mL trypsin (PAA Laboratories Ltd.) equilibrated to room temperature.
5 μL of each solution of 1:20 diluted compound from above is transferred to a clear bottomed, black, 384-well assay plate using the Bravo or the Janus (384-well MDT head from Perkin Elmer). Using a 16-channel Matrix multi-channel pipette, 35 μL of the working solution of HDAC4 catalytic domain enzyme (0.2 μg/mL in assay buffer) is transferred to the assay plate. […] The assay plate is then shaken for two minutes on an orbital shaker at 900 rpm (rotations per minute). Next the plate is incubated for 15 minutes at 37° C. The reaction is stopped by adding 25 μL of 3× (30 μM) developer/stop solution to the assay plates using either the Bravo, Janus or a 16-channel Matrix multi-channel pipette. Assay plates are then shaken for 5 minutes on an orbital shaker at 1200 rpm. Next, the assay plates are incubated at 37° C. for 1 hour in a tissue culture incubator. Finally, the fluorescence is measured (Excitation: 355 nm, Emission: 460 nm) using PerkinElmer EnVision in top read mode.

Experiment [3] concerns cellular histone deacetylase activity (Lys-Ac). In words: Inhibition of cellular HDAC activity (Cell Lys-Ac). The class given is cell-based. As to conditions: Lys-Ac substrate.
[4] abbreviates: Homo sapiens, Jurkat E6.1, Lys-TFA substrate.

Histone Deacetylase 4 (HDAC4) catalytic domain, sequence (P56524 648-1032): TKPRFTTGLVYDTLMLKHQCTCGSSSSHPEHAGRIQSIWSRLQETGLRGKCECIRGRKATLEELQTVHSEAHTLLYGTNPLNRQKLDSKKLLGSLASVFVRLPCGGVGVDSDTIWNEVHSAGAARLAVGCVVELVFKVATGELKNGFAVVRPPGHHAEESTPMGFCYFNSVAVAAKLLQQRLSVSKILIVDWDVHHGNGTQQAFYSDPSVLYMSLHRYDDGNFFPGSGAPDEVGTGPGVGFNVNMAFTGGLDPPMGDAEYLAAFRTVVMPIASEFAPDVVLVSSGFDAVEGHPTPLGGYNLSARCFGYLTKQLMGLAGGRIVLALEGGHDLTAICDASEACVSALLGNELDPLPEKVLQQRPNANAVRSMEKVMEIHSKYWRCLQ

In the case of `Cc1c(F)cccc1C1(C(=O)NO)Cc2nc(-c3ccccc3F)sc2C1` (single isomer, unassigned) [Example 62, E2-(abs)-5-(3-fluoro-2-methylphenyl)-2-(2-fluorophenyl)-N-hydroxy-5,6-dihydro-4H-cyclopenta[d]thiazole-5-carboxamide], the figures for the concentration for half-maximal inhibition (IC50) in experiment [1] (Lys-TFA substrate), in experiment [2] and in experiment [3] were 49 nM, 193 nM and above 50000 nM, respectively.

On to `Cc1c(F)cccc1[C@]1(C(=O)NO)Cc2cnn(C3CCCC3)c2C1` [Example 18, (S)-1-Cyclopentyl-5-(3-fluoro-2-methylphenyl)-N-hydroxy-1,4,5,6-tetrahydrocyclopenta[c]pyrazole-5-carboxamide], for which the IC50 in experiment [1] (setting [4]) was 163 nM; in experiment [2], 37 nM; in experiment [3], above 50000 nM.

Consider `Cc1c(F)cccc1C1(C(=O)NO)CCc2cn(CC(F)(F)F)nc2CC1` (single isomer, unassigned) [Example 85, E2-(abs)-6-(3-fluoro-2-methylphenyl)-N-hydroxy-2-(2,2,2-trifluoroethyl)-2,4,5,6,7,8-hexahydrocyclohepta[c]pyrazole-6-carboxamide], for which the half-maximal inhibitory concentration (IC50) was 1800 nM in experiment [1] (Lys-TFA substrate), 790 nM in experiment [2] and above 50000 nM in experiment [3].

`Cc1c(F)cccc1[C@]1(C(=O)NO)Cc2nc(-c3ccnn3C)sc2C1` [Example 68, (S)-5-(3-Fluoro-2-methylphenyl)-N-hydroxy-2-(1-methyl-1H-pyrazol-5-yl)-5,6-dihydro-4H-cyclopenta[d]thiazole-5-carboxamide]: the figures for the half-maximal inhibitory concentration (IC50) in experiment [1] (setting [4]), in experiment [2] and in experiment [3] were 120 nM, 240 nM and above 50000 nM, respectively.

Turning to `Cc1cccc(C)c1-n1ncc2c1C[C@](C(=O)NO)(c1cccc(F)c1C)C2` [Example 13, (S)-1-(2,6-Dimethylphenyl)-5-(3-fluoro-2-methylphenyl)-N-hydroxy-1,4,5,6-tetrahydrocyclopenta[c]pyrazole-5-carboxamide], the IC50 in experiment [1] (setting [4]) was 12 nM; in experiment [2], 27 nM; in experiment [3], above 50000 nM.

As for `Cc1cnccc1-n1cc2c(n1)C[C@](C(=O)NO)(c1cccc(F)c1C)C2` [Example 27, (S)-5-(3-fluoro-2-methylphenyl)-N-hydroxy-2-(3-methylpyridin-4-yl)-2,4,5,6-tetrahydrocyclopenta[c]pyrazole-5-carboxamide], the IC50 was 116 nM in experiment [1] (setting [4]), 53 nM in experiment [2] and above 50000 nM in experiment [3].

In the case of `Cc1c(F)cccc1[C@]1(C(=O)NO)Cc2cnc(C(F)(F)F)nc2C1` [Example 56, (S)-6-(3-Fluoro-2-methylphenyl)-N-hydroxy-2-(trifluoromethyl)-6,7-dihydro-5H-cyclopenta[d]pyrimidine-6-carboxamide], the IC50 in experiment [1] (setting [4]) is 1800 nM; in experiment [2] it was 880 nM; in experiment [3], above 50000 nM.

Consider `Cc1cccc(-n2cc3c(n2)C[C@](C(=O)NO)(c2cccc(F)c2C)C3)c1` [Example 25, (S)-5-(3-fluoro-2-methylphenyl)-N-hydroxy-2-(m-tolyl)-2,4,5,6-tetrahydrocyclopenta[c]pyrazole-5-carboxamide], for which the IC50 is 160 nM in experiment [1] (setting [4]), 76 nM in experiment [2] and above 50000 nM in experiment [3].

Take `Cc1c(F)cccc1C1(C(=O)NO)Cc2ccccc2C1` [Example 82, 2-(3-Fluoro-2-methylphenyl)-N-hydroxy-2,3-dihydro-1H-indene-2-carboxamide]: the IC50 in experiment [1] (setting [4]) was 1800 nM; in experiment [2], 110 nM; in experiment [3], above 50000 nM.

`Cc1c(F)cccc1[C@]1(C(=O)NO)Cc2cn(-c3ncccc3F)nc2C1` [Example 29, (S)-5-(3-Fluoro-2-methylphenyl)-2-(3-fluoropyridin-2-yl)-N-hydroxy-2,4,5,6-tetrahydrocyclopenta[c]pyrazole-5-carboxamide]: the IC50 in experiment [1] (setting [4]) was 69 nM; in experiment [2], 104 nM; in experiment [3], above 50000 nM.

For `Cc1c(F)cccc1C1(C(=O)NO)CCc2c(cnn2-c2ccccc2)C1` (single isomer, unassigned) [Example 31, E1-(abs)-5-(3-Fluoro-2-methylphenyl)-N-hydroxy-1-phenyl-4,5,6,7-tetrahydro-1H-indazole-5-carboxamide], the half-inhibitory concentration (IC50) is 72 nM in experiment [1] (Lys-TFA substrate), 820 nM in experiment [2] and above 50000 nM in experiment [3].

Turning to `Cc1c(F)cccc1[C@]1(C(=O)NO)CCc2nc(-c3ccccc3Cl)ncc21` [Example 49, (R)-2-(2-chlorophenyl)-5-(3-fluoro-2-methylphenyl)-N-hydroxy-6,7-dihydro-5H-cyclopenta[d]pyrimidine-5-carboxamide], the values for the concentration for half-maximal inhibition (IC50) in experiment [1] (setting [4]), in experiment [2] and in experiment [3] were 250 nM, 102 nM and above 50000 nM, respectively.

With `Cc1c(F)cccc1[C@]1(C(=O)NO)Cc2cn(-c3ccc(OC(F)F)cc3)nc2C1` [Example 21, (S)-2-(4-(difluoromethoxy)phenyl)-5-(3-fluoro-2-methylphenyl)-N-hydroxy-2,4,5,6-tetrahydrocyclopenta[c]pyrazole-5-carboxamide], the 50% inhibitory concentration (IC50) in experiment [1] (setting [4]) is 175 nM; in experiment [2] it was 147 nM; in experiment [3], above 50000 nM.

As for `Cc1ccc(C)c(-n2ncc3c2C[C@](C(=O)NO)(c2cccc(F)c2C)C3)c1` [Example 12, (S)-1-(2,5-Dimethylphenyl)-5-(3-fluoro-2-methylphenyl)-N-hydroxy-1,4,5,6-tetrahydrocyclopenta[c]pyrazole-5-carboxamide], the values for the IC50 in experiment [1] (setting [4]), in experiment [2] and in experiment [3] were 18 nM, 21 nM and above 50000 nM, respectively.

On to `Cc1c(F)cccc1C1(C(=O)NO)CCc2cn(CC(F)(F)F)nc2CC1` (single isomer, unassigned) [Example 84, E1-(abs)-6-(3-Fluoro-2-methylphenyl)-N-hydroxy-2-(2,2,2-trifluoroethyl)-2,4,5,6,7,8-hexahydrocyclohepta[c]pyrazole-6-carboxamide], for which the IC50 in experiment [1] (setting [4]) is 1400 nM; in experiment [2], 480 nM; in experiment [3], above 50000 nM.

Turning to `Cc1c(F)cccc1[C@]1(C(=O)NO)Cc2cnc(-c3ccccc3Cl)nc2C1` [Example 48, (S)-2-(2-Chlorophenyl)-6-(3-fluoro-2-methylphenyl)-N-hydroxy-6,7-dihydro-5H-cyclopenta[d]pyrimidine-6-carboxamide], the IC50 in experiment [1] (setting [4]) was 60 nM; in experiment [2] it was 156 nM; in experiment [3], above 50000 nM.

For the compound `Cc1c(F)cccc1[C@]1(C(=O)NO)Cc2cnn(-c3ccc(OC(F)F)cc3)c2C1` [Example 20, (S)-1-(4-(Difluoromethoxy)phenyl)-5-(3-fluoro-2-methylphenyl)-N-hydroxy-1,4,5,6-tetrahydrocyclopenta[c]pyrazole-5-carboxamide], the IC50 is 250 nM in experiment [1] (setting [4]), 109 nM in experiment [2] and above 50000 nM in experiment [3].

For the compound `Cc1c(F)cccc1[C@]1(C(=O)NO)Cc2cnn(C(C)C)c2C1` [Example 53, (S)-5-(3-Fluoro-2-methylphenyl)-N-hydroxy-1-isopropyl-1,4,5,6-tetrahydrocyclopenta[c]pyrazole-5-carboxamide], the IC50 in experiment [1] (setting [4]) is 230 nM; in experiment [2], 67 nM; in experiment [3], above 50000 nM.

Regarding `Cc1c(F)cccc1[C@]1(C(=O)NO)Cc2cnn(-c3cccc(F)c3)c2C1` [Example 6, (S)-5-(3-Fluoro-2-methylphenyl)-1-(3-fluorophenyl)-N-hydroxy-1,4,5,6-tetrahydrocyclopenta[c]pyrazole-5-carboxamide], the results for the IC50 in experiment [1] (setting [4]), in experiment [2] and in experiment [3] were 67 nM, 44 nM and above 50000 nM, respectively.

Source of the values: patent US10065948B2, “Histone deacetylase inhibitors and compositions and methods of use thereof” (CHDI Foundation, Inc., priority 2014, dated 2018).
